Patent US20240302387A1, “HIGHLY FLUORINATED COMPOUNDS FOR 19F MRI-BASED THERMOMETRY” (Regents of the University of Minnesota, priority 2023, published 2024)
Entries after “also recorded” stand apart in the source; their conditions may differ. Where two headings read alike, the source gives them in different places.

How the values were obtained:
Assay type in all cases: physicochemical
[1] = Direct photolysis kinetics and quantum yield, solar simulator; conditions: for quantum yield of direct photolysis: 10 mM pH 7 phosphate buffer
[2] = Quantitative 19F NMR fluorine mass balance after ozonation
Experimental: (§1) Quantitative ^19F NMR was conducted to determine if any of the fluorinated functional groups were susceptible to degradation. The environmental persistence and potential impact of these fluorinated temperature sensors will be a function of not only the persistence of the parent compound, but also that of any fluorinated reaction products. Photolysis and ozonation represent natural and engineered processes, respectively, that could degrade these compounds after their use and introduction into the water system.
(§2) ^19F NMR spectra were taken to quantify and partition degradation products from the parent compound signals for photolysis and ozonation (FIG. 7). […] The solutions analyzed contained 50 μM of DD-1 with 14 fluorine atoms, thus a total fluorine concentration of 700 μM, with 200 μM attributed to the aromatic fluorines (Ar—F; −137.04 ppm), 200 μM attributed to the CF2 (−121.34 ppm), and 300 μM attributed to the CF3 (−89.14 ppm) as shown in FIG. 7. […] Top: regional spectrum of untreated DD-1. Middle: regional spectrum of DD-1 degraded by solar simulator. Bottom: regional spectrum of DD-1 degraded by ozone. (left) Spectra of CF3 region. (middle) Spectra of CF2 region. (right) Spectra of Ar—F region. For photolysis and ozonation, 61% and 87% the parent Ar—F signal was lost respectively. A peak at ˜139.1 ppm appeared following ozonation and is hypothesized to be a hydroxylated aromatic ring product, which is a known reaction process for aromatics during ozonation (Vialaton, D., et al (1998) J Photochem Photobiol A Chem 119 (1):39-45). For the parent CF2, the signal decreased by 45% and 79%, but new CF2 products appeared upfield. Under both degradative conditions, new peaks appear in the near regions of the CF2, likely due to ring opening processes. […] For the parent CF3, the signal decreased by 38% and 69%, again with new CF3 products appearing upfield. An excess of 39 μM and 48 μM fluorine for the solar simulator and ozonation, respectively, was found within the CF3 region. These groups are hypothesized to be products produced by opening of the aromatic ring, which could be vinyl fluorines with oxygen and/or sulfur substituents.
Ozone-mediated Degradation: The 10 mM DMSO stock solution of DD-1 was used to make 100 mL of a 50 μM solution in the 10 mM pH=7 phosphate buffer. The solution was placed in an Erlenmeyer flask in an ice bath. Ozone (O3) was produced using ultra-high pure oxygen gas (99.99%) with a Pacific Ozone O3 generator and bubbled directly into the sample solution. O3 concentration was previously measured using UV-Vis spectroscopy (Beckman Coulter DU 530). The concentration of O3 (with an ε=3000 M^−1 cm^−1) was determined by direct absorbance at 258 nm. By using a 3:1 dilution, the absorbance obtained is equivalent to the O3 concentration in mM. After 30 minutes the O3 concentration in ultrapure water was 0.61 mM or 29.16 mg/L. Samples were taken over time for 300 minutes and parent compound degradation was monitored via HPLC.

[3] = Phase at room temperature
Experimental: All seven organofluorine temperature sensors of Table 1a were synthesized under the optimized reaction conditions for enabling facile synthesis in the following General Scheme and Examples. Specifically, temperature sensors DD1-DD7 were prepared through an SNAr reaction. Compounds DD-2 and DD-4 required one extra oxidation of DD-1 and DD-3 to provide the respective sulfones. Yields of the SNAr reactions using thiol, HS—(CF2)7—CF3, were low […], while the yields with HS—CH2CH2CH2CF2CF3 fell in the range of […].

[4] = Quantitative 19F NMR fluorine mass balance after photolysis (solar simulator)
Experimental: as §1, §2
Photolysis Experiments: Stock solutions were diluted to 10 μM in the phosphate buffer for kinetic experiments and 50 μM for ^19F NMR experiments. Solutions were placed in 10 mL quartz tubes sealed with cork stoppers with no contact to the solution. The solutions were photolyzed in (i) an Atlas Suntest CPS+® solar simulator with a 1500 W xenon lamp at an intensity of 765 W m-2 using a wavelength range of 290-800 nm at a 30° angle, and (ii) a 450 W medium pressure polychromatic mercury vapor lamp with a quartz immersion well with cooling water circulation, a Pyrex 280 nm cutoff filter (Ace Glass), and a merry-go-round sample holder. Samples were photolyzed until ˜60 to 80% degradation of the parent compound was achieved. For each compound an equivalent tube was prepared and wrapped in aluminum foil as a dark control. Experiments were performed in triplicate

[5] = 19F NMR aqueous solubility limit measurement; conditions: for solubility: pH 6.9, aqueous with cosolvent or surfactant or cyclodextrin, kinetic from dmso stock
Experimental: ^19F NMR Aqueous Solubility Limit Measurements: Compound was dissolved in DMSO and then added to 10 mM pH=6.9 phosphate buffer/D2O (9:1 v/v) to make 5% DMSO stock in 500 μL phosphate buffer/D2O at concentration of 10/50/100/150/200/250 μM. Samples were measured with Bruker AVANCE III 500@ equipped with a 5 mm BBFO SmartProbe®. ^19F spectra were obtained at 471 MHz with dummy scans=4, acquisition time=0.57 s, delay time =1 s, […], and the number of scans=800 UV-Visible Spectra: Stock solutions of DD-1, DD-3, and DD-5 were prepared at 10 mM in DMSO and stored in the dark. A 10 mM phosphate buffer at pH=7 was prepared and stock solutions were diluted to 50 μM. UV-visible absorption spectra were obtained using a Horiba Aqualog®.

[6] = Direct photolysis kinetics, mercury vapor lamp

Fc1c(F)c(SCCCC(F)(F)C(F)(F)F)c(F)c(F)c1SCCCC(F)(F)C(F)(F)F [DD-1, (perfluoro-1,4-phenylene)bis((4,4,5,5,5-pentafluoropentyl)sulfane)]
quantum yield of direct photolysis [1]: 0.0272 mol Ei^−1 | sum of fluorine concentrations for Ar—F, F− and ring opening products/vinyl F ([2]; O3, initial Ar—F 200 μM): 200 µM | Fluoride (F−) production ([2]; ozonation, 50 μM): 117 µM | excess fluorine found within the CF3 region ([2]; ozonation, 50 μM): 48 µM | parent Ar—F 19F NMR signal lost ([2]; ozonation, 50 μM): 87% | parent CF2 signal decrease ([2]; ozonation, 50 μM): 79% | parent CF3 signal decrease ([2]; ozonation, 50 μM): 69% | Phase [3]: liquid phase at room temperature | Fluoride (F−) production ([4]; photolysis, 50 μM): 79 µM | parent Ar—F 19F NMR signal lost ([4]; photolysis, 50 μM): 61% | parent CF2 signal decrease ([4]; photolysis, 50 μM): 45% | parent CF3 signal decrease ([4]; photolysis, 50 μM): 38% | sum of fluorine concentrations for Ar—F, F− and ring opening products/vinyl F ([4]; photolysis, initial Ar—F 200 μM): 198 µM | excess fluorine found within the CF3 region ([4]; solar simulator, 50 μM): 39 µM | solubility [5]: ≤ 200 µM

FC(F)(F)C(F)(F)C(F)(F)C(F)(F)N(C(F)(F)C(F)(F)C(F)(F)C(F)(F)F)C(F)(F)C(F)(F)C(F)(F)C(F)(F)F [CC-1, perfluorotributylamine, reference compound]
Phase [3]: liquid | Phase ([3]; listed as CC-1 PFTBA): solid at room temperature | water solubility (in words) [5]: limited water solubility

Fc1c(F)c(-c2c(F)c(F)c(SCCCC(F)(F)C(F)(F)F)c(F)c2F)c(F)c(F)c1SCCCC(F)(F)C(F)(F)F [DD-3, (perfluoro-[1,1′-biphenyl]-4,4′-diyl)bis((4,4,5,5,5-pentafluoropentyl)sulfane)]
quantum yield of direct photolysis [1]: 0.0267 mol Ei^−1 | Phase [3]: liquid phase at room temperature | solubility [5]: ≤ 200 µM

O=S(=O)(CCCC(F)(F)C(F)(F)F)c1c(F)c(F)c(-c2c(F)c(F)c(S(=O)(=O)CCCC(F)(F)C(F)(F)F)c(F)c2F)c(F)c1F [DD-4, 2,2′,3,3′,5,5′,6,6′-octafluoro-4,4′-bis((4,4,5,5,5-pentafluoropentyl)sulfonyl)-1,1′-biphenyl]
Phase [3]: solid

Fc1c(F)c(SCCC(F)(F)C(F)(F)C(F)(F)C(F)(F)C(F)(F)C(F)(F)C(F)(F)C(F)(F)F)c(F)c(F)c1SCCC(F)(F)C(F)(F)C(F)(F)C(F)(F)C(F)(F)C(F)(F)C(F)(F)C(F)(F)F [CC-3, (perfluoro-1,4-phenylene)bis((3,3,4,4,5,5,6,6,7,7,8,8,9,9,10,1 0,10-heptadecafluorodecyl)sulfane), reference compound]
Phase [3]: solid

O=S(=O)(c1c(F)c(F)c(SCCCC(F)(F)C(F)(F)F)c(F)c1F)c1c(F)c(F)c(SCCCC(F)(F)C(F)(F)F)c(F)c1F [DD-6, (sulfonylbis(2,3,5,6-tetrafluoro-4,1-phenylene))bis((4,4,5,5,5-pentafluoropentyl)sulfane)]
Phase [3]: solid

Fc1c(F)c(-c2c(F)c(F)c(SCCC(F)(F)C(F)(F)C(F)(F)C(F)(F)C(F)(F)C(F)(F)C(F)(F)C(F)(F)F)c(F)c2F)c(F)c(F)c1SCCC(F)(F)C(F)(F)C(F)(F)C(F)(F)C(F)(F)C(F)(F)C(F)(F)C(F)(F)F [CC-2, (perfluoro-[1,1′-biphenyl]-4,4′-diyl)bis((3,3,4,4,5,5,6,6,7,7,8,8,9,9,10,10,10-heptadecafluorodecyl)sulfane), reference compound]
Phase [3]: solid

O=S(=O)(CCCC(F)(F)C(F)(F)F)c1c(F)c(F)c(S(=O)(=O)CCCC(F)(F)C(F)(F)F)c(F)c1F [DD-2, 1,2,4,5-tetrafluoro-3,6-bis((4,4,5,5,5-pentafluoropentyl)sulfonyl) benzene]
Phase [3]: white solids; also recorded: solid

Fc1c(F)c(Sc2c(F)c(F)c(SCCCC(F)(F)C(F)(F)F)c(F)c2F)c(F)c(F)c1SCCCC(F)(F)C(F)(F)F [DD-5, bis(2,3,5,6-tetrafluoro-4-((4,4,5,5,5-pentafluoropentyl)thio)phenyl)sulfane]
rank of photolysis rate constant [1]: fastest | quantum yield of direct photolysis [1]: 0.0520 mol Ei^−1 | rank of photolysis rate constant [6]: fastest | Phase [3]: solid
